Experimental data reported in US20200239530A1, “COMPOUNDS AND METHODS OF MODULATING PROTEIN DEGRADATION” (Vividion Therapeutics, Inc., priority 2017, published 2020).

What was measured:
Experiment in all cases: Cysteine liganding, probe competition
Type in all cases: binding
[1] = target: T1, UNC93B1 Protein unc-93 homolog B1 (Homo sapiens, UniProt Q9H1C4)
T1 construct: Cells were resuspended in cold PBS on ice and sonicated with a probe sonicator to achieve lysis; endogenous in cells
T1 sequence (Q9H1C4 1-597): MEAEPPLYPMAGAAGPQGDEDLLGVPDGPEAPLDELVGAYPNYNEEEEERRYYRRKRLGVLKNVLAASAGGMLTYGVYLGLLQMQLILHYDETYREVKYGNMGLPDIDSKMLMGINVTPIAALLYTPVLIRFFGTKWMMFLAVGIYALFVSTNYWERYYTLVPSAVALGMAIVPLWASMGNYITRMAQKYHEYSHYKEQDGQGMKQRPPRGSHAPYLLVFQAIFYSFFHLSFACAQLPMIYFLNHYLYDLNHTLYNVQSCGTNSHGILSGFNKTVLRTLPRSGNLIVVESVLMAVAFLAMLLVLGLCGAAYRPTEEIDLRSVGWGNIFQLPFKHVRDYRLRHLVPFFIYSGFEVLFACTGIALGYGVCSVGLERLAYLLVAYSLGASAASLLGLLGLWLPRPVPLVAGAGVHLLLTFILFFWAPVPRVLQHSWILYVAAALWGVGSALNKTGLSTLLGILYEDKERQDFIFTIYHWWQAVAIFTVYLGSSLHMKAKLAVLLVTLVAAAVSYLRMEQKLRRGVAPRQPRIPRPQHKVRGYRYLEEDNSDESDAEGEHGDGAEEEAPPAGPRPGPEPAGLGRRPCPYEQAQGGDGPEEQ
Method in brief: (§1)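 Steps: sonicate cells in cold PBS; treat 5 mg/ml lysate with compound (25° C, 1 hr); add desthiobiotin iodoacetamide probe from a 10 mM stock (25° C, 1 hr); precipitate, reduce, alkylate, digest with trypsin; capture labelled peptides on streptavidin for analysis.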

[2] = target: T2, BACH2 Transcription regulator protein BACH2 (Homo sapiens, UniProt Q9BYV9)
T2 construct: Cells were resuspended in cold PBS on ice and sonicated with a probe sonicator to achieve lysis; endogenous in cells
T2 sequence (Q9BYV9 whole entry): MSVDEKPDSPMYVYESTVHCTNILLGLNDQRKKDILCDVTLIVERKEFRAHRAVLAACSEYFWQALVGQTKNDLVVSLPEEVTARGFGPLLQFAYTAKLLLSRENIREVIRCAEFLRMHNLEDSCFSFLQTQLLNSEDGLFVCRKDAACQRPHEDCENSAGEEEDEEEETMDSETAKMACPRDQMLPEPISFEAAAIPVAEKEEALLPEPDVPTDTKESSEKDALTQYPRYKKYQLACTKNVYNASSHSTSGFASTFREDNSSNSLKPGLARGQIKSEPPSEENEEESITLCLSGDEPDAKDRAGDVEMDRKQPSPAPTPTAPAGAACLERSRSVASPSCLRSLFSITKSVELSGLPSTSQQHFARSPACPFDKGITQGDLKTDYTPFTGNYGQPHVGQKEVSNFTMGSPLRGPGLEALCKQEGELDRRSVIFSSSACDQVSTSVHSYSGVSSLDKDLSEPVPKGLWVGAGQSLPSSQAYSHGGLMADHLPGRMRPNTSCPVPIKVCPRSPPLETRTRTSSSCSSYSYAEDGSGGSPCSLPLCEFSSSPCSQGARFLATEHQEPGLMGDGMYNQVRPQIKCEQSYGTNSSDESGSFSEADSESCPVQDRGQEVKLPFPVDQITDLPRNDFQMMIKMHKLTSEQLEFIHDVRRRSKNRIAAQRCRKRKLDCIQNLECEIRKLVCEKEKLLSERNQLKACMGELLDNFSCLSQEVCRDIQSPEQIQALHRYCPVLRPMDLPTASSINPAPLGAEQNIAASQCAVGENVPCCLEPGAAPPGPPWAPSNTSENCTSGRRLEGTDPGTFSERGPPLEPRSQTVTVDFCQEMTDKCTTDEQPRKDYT
Method in brief: as §1

[3] = target: T3, DDX60 Probable ATP-dependent RNA helicase DDX60 (Homo sapiens, UniProt Q8IY21)
T3 construct: 200 μL of lysate containing 5 mg/ml proteome was treated with 2 μL of 100× compound stock; endogenous in cells
T3 sequence (Q8IY21 whole entry): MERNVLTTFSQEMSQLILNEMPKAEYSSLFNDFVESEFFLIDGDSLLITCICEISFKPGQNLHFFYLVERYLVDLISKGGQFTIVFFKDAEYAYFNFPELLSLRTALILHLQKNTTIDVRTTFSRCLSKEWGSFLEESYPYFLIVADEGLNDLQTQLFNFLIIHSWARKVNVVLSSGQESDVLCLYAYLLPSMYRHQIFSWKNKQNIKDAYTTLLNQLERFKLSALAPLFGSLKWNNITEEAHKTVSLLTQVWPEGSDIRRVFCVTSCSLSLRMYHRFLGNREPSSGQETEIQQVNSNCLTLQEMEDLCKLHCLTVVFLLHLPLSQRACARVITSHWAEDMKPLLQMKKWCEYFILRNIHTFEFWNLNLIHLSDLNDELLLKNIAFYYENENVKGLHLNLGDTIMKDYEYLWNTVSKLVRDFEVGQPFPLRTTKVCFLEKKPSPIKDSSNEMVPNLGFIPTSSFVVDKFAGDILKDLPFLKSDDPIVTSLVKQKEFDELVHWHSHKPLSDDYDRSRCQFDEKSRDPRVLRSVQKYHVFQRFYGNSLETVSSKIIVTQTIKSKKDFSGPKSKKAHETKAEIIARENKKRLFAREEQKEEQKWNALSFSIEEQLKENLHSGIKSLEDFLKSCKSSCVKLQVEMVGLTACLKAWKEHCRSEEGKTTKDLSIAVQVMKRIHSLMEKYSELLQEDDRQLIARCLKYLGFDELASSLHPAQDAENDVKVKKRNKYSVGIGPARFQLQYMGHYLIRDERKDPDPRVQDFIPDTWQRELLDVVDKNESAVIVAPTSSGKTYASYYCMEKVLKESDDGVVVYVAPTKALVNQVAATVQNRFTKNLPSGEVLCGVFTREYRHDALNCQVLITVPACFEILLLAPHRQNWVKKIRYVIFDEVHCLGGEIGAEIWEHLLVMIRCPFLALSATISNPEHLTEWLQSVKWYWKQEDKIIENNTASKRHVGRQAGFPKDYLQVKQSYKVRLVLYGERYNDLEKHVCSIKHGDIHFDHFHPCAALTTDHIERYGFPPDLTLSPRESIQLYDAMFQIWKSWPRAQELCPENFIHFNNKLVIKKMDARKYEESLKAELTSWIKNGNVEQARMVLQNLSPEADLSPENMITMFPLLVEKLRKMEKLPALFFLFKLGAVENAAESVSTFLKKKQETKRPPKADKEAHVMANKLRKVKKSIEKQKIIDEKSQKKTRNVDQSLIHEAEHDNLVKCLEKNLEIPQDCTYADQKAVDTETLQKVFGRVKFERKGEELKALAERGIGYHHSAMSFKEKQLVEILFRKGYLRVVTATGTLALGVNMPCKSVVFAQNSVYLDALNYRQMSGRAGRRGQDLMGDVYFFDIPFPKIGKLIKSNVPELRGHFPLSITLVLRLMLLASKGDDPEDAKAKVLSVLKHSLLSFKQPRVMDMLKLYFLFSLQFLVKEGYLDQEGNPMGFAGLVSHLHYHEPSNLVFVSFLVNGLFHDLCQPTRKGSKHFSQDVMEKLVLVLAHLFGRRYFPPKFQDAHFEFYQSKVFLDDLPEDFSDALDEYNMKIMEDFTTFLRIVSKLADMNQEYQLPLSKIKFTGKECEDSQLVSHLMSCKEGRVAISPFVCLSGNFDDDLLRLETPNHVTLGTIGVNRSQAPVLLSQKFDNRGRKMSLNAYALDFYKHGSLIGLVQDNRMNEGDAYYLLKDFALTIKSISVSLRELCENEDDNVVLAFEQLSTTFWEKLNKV
Method in brief: as §1

[4] = target: T4, DCAF17 DDB1- and CUL4-associated factor 17 (Homo sapiens, UniProt Q5H9S7)
T4 construct: Cells were resuspended in cold PBS on ice and sonicated with a probe sonicator to achieve lysis; endogenous in cells
T4 sequence (Q5H9S7 1-520): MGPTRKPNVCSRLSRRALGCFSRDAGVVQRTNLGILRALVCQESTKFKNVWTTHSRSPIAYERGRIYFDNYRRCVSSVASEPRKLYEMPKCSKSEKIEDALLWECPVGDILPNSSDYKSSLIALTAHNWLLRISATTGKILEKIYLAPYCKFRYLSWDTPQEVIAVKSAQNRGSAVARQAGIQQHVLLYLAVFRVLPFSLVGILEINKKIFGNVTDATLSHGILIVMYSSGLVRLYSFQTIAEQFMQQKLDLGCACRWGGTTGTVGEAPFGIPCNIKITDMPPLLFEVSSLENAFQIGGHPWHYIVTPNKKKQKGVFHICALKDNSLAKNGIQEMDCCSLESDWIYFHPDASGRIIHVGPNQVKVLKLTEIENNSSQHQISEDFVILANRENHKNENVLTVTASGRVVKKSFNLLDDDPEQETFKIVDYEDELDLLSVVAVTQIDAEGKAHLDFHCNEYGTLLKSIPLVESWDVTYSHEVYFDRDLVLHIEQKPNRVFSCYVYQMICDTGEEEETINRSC
Method in brief: as §1

| Compound | Liganded ([1]; UNC93B1 Res# 583, uniprot Q9H1C4) | Liganded ([2]; BACH2 Res# 370, uniprot Q9BYV9) | Liganded ([3]; DDX60 Res# 1051, uniprot Q8IY21) | Liganded ([4]; DCAF17 Res# 20, uniprot Q5H9S7) | 100 Max ([4]; uniprot Q5H9S7) | 100 ave ([4]; uniprot Q5H9S7) | 500 Max ([4]; uniprot Q5H9S7) | 500 ave ([4]; uniprot Q5H9S7) | 100 Max ([1]; uniprot Q9H1C4) | 100 ave ([1]; uniprot Q9H1C4) | 500 ave ([1]; uniprot Q9H1C4) | 500 Max ([1]; uniprot Q9H1C4, in % (unit assumed)) | 100 Max ([2]; uniprot Q9BYV9) | 100 ave ([2]; uniprot Q9BYV9) | 500 ave ([2]; uniprot Q9BYV9) | 500 Max ([2]; uniprot Q9BYV9, unit assumed) | 100 Max ([3]; uniprot Q8IY21) | 100 ave ([3]; uniprot Q8IY21) | 500 Max ([3]; uniprot Q8IY21) | 500 ave ([3]; uniprot Q8IY21) |
| --- | --- | --- | --- | --- | --- | --- | --- | --- | --- | --- | --- | --- | --- | --- | --- | --- | --- | --- | --- | --- |
| COc1ccc2c(c1)CCCN2C(=O)CCl [KB02] | YES | YES | YES | YES | 60.8 | 40.3 | 91.7 | 91.7 |  |  |  |  |  |  |  |  |  |  |  |  |
| O=C(CCl)Nc1cc(C(F)(F)F)cc(C(F)(F)F)c1 [KBO3] |  |  |  |  | −21.2 | −21.2 |  |  | 29.9385 | 13 | 70.38 | 72.3195 | 25.4 | 17.2 | 62.8 | 62.8% | 29.56 | 19.7 | 73.07 | 73.07 |
